Our source for the pest or weed control values is patent publication US11427549B2, “Pyrimidinyloxy benzo-fused compounds as herbicides” (FMC Corporation, priority 2017, dated 2022).

Assay type in all cases: in vivo
The subject of assay [1] is foxtail, green (green foxtail, Setaria viridis). Nature of the assay: Test A preemergence, foxtail, green. As to conditions: Setaria, pre-emergence, 240 h, 0 to 100 scale (0 no effect, 100 complete control), read-out: Plant response rating, Foxtail, Green; for pest or weed control at 125 g/ha: 125 g ai/ha; for pest or weed control at 31 g/ha: 31 g ai/ha. From the text: (§1) Seeds of plant species selected from barnyardgrass (Echinochloa crus-galli), kochia (Kochia scoparia), ragweed (common ragweed, Ambrosia elatior), ryegrass, Italian (Italian ryegrass, Lolium multiflorum), foxtail, giant (giant foxtail, Setaria faberii), foxtail, green (green foxtail, Setaria viridis) and pigweed (Amaranthus retroflexus) were planted into a blend of loam soil and sand and treated preemergence with a directed soil spray using test chemicals formulated in a non-phytotoxic solvent mixture which included a surfactant.
(§2) At the same time, plants selected from these weed species and also wheat (Triticum aestivum), corn (Zea mays), blackgrass (Alopecurus myosuroides), and galium (catchweed bedstraw, Galium aparine) were planted in pots containing the same blend of loam soil and sand and treated with postemergence applications of test chemicals formulated in the same manner. Plants ranged in height from 2 to 10 cm and were in the one- to two-leaf stage for the postemergence treatment. Treated plants and untreated controls were maintained in a greenhouse for approximately 10 days, after which time all treated plants were compared to untreated controls and visually evaluated for injury. […] A dash (-) response means no test result.

For assay [2], the system named is foxtail, giant (giant foxtail, Setaria faberii). Nature of the assay: Test A preemergence, foxtail, giant. As to conditions: Setaria faberi, pre-emergence, 240 h, 0 to 100 scale (0 no effect, 100 complete control), read-out: Plant response rating, Foxtail, Giant; for pest or weed control at 31 g/ha: 31 g ai/ha; for pest or weed control at 125 g/ha: 125 g ai/ha.
Source text: as §1, §2

Assay [3] has the same test system. Nature of the assay: Test A postemergence, foxtail, giant. As to conditions: Setaria faberi, post-emergence, 240 h, 0 to 100 scale (0 no effect, 100 complete control), read-out: Plant response rating, Foxtail, Giant; for pest or weed control at 31 g/ha: 31 g ai/ha; for pest or weed control at 125 g/ha: 125 g ai/ha.
Source text: as §1, §2

`O=C1OC(CCCC(F)(F)F)c2c(Oc3ncc(Cl)cn3)cccc21` (stereo not drawn) [Compound 1, 4-[(5-Chloro-2-pyrimidinyl)oxy]-3-(4,4,4-trifluorobutyl)-1(3H)-isobenzofuranone]: the pest or weed control at 125 g/ha in assay [1] came out at 100%. Further, the pest or weed control at 500 g/ha in assay [1] (500 g ai/ha) turned out to be 100%.
Consider `O=C1O[C@@H](CCCC(F)(F)F)c2c(Oc3ncc(Cl)cn3)cccc21` [Compound 2, (3S)-4-[(5-Chloro-2-pyrimidinyl)oxy]-3-(4,4,4-trifluorobutyl)-1-(3H)-isobenzofuranone], for which, in assay [1], the pest or weed control at 31 g/ha came to 0% and the pest or weed control at 125 g/ha came out at 30%.
Turning to `O=C1O[C@H](CCCC(F)(F)F)c2c(Oc3ncc(Cl)cn3)cccc21` [Compound 3, (3R)-4-[(5-Chloro-2-pyrimidinyl)oxy]-3-(4,4,4-trifluorobutyl)-1-(3H)-isobenzofuranone], in assay [1], the pest or weed control at 31 g/ha worked out at 100% and the pest or weed control at 125 g/ha worked out at 100%.
As for `O=C1OC(CCC(F)(F)F)c2c(Oc3ncc(Cl)cn3)cccc21` (stereo not drawn) [Compound 4, 4-[(5-Chloro-2-pyrimidinyl)oxy]-3-(3,3,3-trifluoropropyl)-1(3H)-isobenzofuranone], in assay [1], the pest or weed control at 31 g/ha worked out at 100% and the pest or weed control at 125 g/ha came out at 100%.
Consider `O=C1COC(CCCC(F)(F)F)c2c(Oc3ncc(Cl)cn3)cccc21` (stereo not drawn) [Compound 5, 8-[(5-Chloro-2-pyrimidinyl)oxy]-1-(4,4,4-trifluorobutyl)-1H-2-benzopyran-4(3H)-one], for which, in assay [1], the pest or weed control at 31 g/ha was 0% and the pest or weed control at 125 g/ha was determined as 0%.
Consider `FC(F)(F)CCCC1OCc2cccc(Oc3ncc(Cl)cn3)c21` (stereo not drawn) [Compound 7, 5-chloro-2-[[1,3-dihydro-3-(4,4,4-trifluorobutyl)-4-isobenzofuranyl]oxy]-pyrimidine], for which, in assay [1], the pest or weed control at 31 g/ha was determined as 80% and the pest or weed control at 125 g/ha stood at 100%.
In the same order, the values of `FC(F)(F)CCC1OCc2cccc(Oc3ncc(Cl)cn3)c21` (stereo not drawn) [Compound 8, 5-Chloro-2-[[1,3-dihydro-3-(3,3,3-trifluoropropyl)-4-isobenzofuranyl]oxy]pyrimidine] are 80% and 100%.
In the same order, the values of `FC(F)(F)CCCC1CCc2cccc(Oc3ncc(Cl)cn3)c21` (stereo not drawn) [Compound 9, 5-Chloro-2-[[2,3-dihydro-3-(4,4,4-trifluorobutyl)-1H-inden-4-yl]oxy]pyrimidine] are 70% and 100%.
`OC1CC(CCCC(F)(F)F)c2c(Oc3ncc(Cl)cn3)cccc21` (stereo not drawn) [Compound 10, 4-[(5-Chloro-2-pyrimidinyl)oxy]-2,3-dihydro-3-(4,4,4-trifluorobutyl)-1H-inden-1-ol]: in assay [1], the pest or weed control at 31 g/ha was 60% and the pest or weed control at 125 g/ha stood at 90%.
Take `O=C1CC(CCC(F)(F)F)c2c(Oc3ncc(Cl)cn3)cccc21` (stereo not drawn) [Compound 11, 4-[(5-Chloro-2-pyrimidinyl)oxy]-2,3-dihydro-3-(3,3,3-trifluoropropyl)-1H-inden-1-one]: in assay [1], the pest or weed control at 31 g/ha stood at 10% and the pest or weed control at 125 g/ha is 70%.
For `FC(F)(F)CC[C@H]1OCc2cccc(Oc3ncc(Cl)cn3)c21` [Compound 20, 5-Chloro-2-[[(3R)-1,3-dihydro-3-(3,3,3-trifluoropropyl)-4-isobenzofuranyl]oxy]-pyrimidine], the figures for the pest or weed control at 31 g/ha in assay [2] and in assay [3] were 100% and 50%, respectively. In addition, the pest or weed control at 125 g/ha worked out at 100% in assay [2] and 90% in assay [3].
As for `FC(F)(F)CC[C@@H]1OCc2cccc(Oc3ncc(Cl)cn3)c21` [Compound 21, 5-Chloro-2-[[(3S)-1,3-dihydro-3-(3,3,3-trifluoropropyl)-4-isobenzofuranyl]oxy]-pyrimidine], in assay [2], the pest or weed control at 31 g/ha amounted to 0% and the pest or weed control at 125 g/ha was 0%. In assay [3], the pest or weed control at 31 g/ha stood at 0% and the pest or weed control at 125 g/ha stood at 20%.
Take `O=C1c2cccc(Oc3ncc(Cl)cn3)c2C1CCCC(F)(F)F` (stereo not drawn) [Compound 22, 2-[(5-Chloro-2-pyrimidinyl)oxy]-8-(4,4,4-trifluorobutyl)bicyclo[4.2.0]octa-1,3,5-trien-7-one]: in assay [2], the pest or weed control at 31 g/ha came to 10% and the pest or weed control at 125 g/ha was 70%. In assay [3], the pest or weed control at 31 g/ha was found to be 0% and the pest or weed control at 125 g/ha was determined as 40%.
Consider `O=C1c2cccc(Oc3ncc(Cl)cn3)c2C1CCC(F)(F)F` (stereo not drawn) [Compound 24, 2-[(5-Chloro-2-pyrimidinyl)oxy]-8-(3,3,3-trifluoropropyl)bicyclo[4.2.0]octa-1,3,5-trien-7-one], for which, in assay [2], the pest or weed control at 31 g/ha was 0% and the pest or weed control at 125 g/ha worked out at 20%. Moreover, in assay [3], the pest or weed control at 31 g/ha came to 0% and the pest or weed control at 125 g/ha came to 50%.
Take `O=C1OCC(CCC(F)(F)F)c2c(Oc3ncc(Cl)cn3)cccc21` (stereo not drawn) [Compound 25, 5-[(5-Chloro-2-pyrimidinyl)oxy]-3,4-dihydro-4-(3,3,3-trifluoropropyl)-1H-2-benzopyran-1-one]: in assay [2], the pest or weed control at 31 g/ha came out at 20% and the pest or weed control at 125 g/ha turned out to be 90%. In assay [3], the pest or weed control at 31 g/ha turned out to be 0% and the pest or weed control at 125 g/ha was determined as 30%.
For `O=C1OCc2cccc(Oc3ncc(Cl)cn3)c2C1CCCC(F)(F)F` (stereo not drawn) [Compound 26, 5-[(5-Chloro-2-pyrimidinyl)oxy]-1,4-dihydro-4-(4,4,4-trifluorobutyl)-3H-2-benzopyran-3-one], in that order: 0%, 60%, 0% and 20%.
For `FC(F)(F)CCCC1OCCc2cccc(Oc3ncc(Cl)cn3)c21` (stereo not drawn) [Compound 27, 5-Chloro-2-[[3,4-dihydro-1-(4,4,4-trifluorobutyl)-1H-2-benzopyran-8-yl]oxy]pyrimidine], in that order: 50%, 100%, 10% and 30%.
For `O=C1OCc2cccc(Oc3ncc(Cl)cn3)c2C1CCC(F)(F)F` (stereo not drawn) [Compound 29, 5-[(5-Chloro-2-pyrimidinyl)oxy]-1,4-dihydro-4-(3,3,3-trifluoropropyl)-3H-2-benzopyran-3-one], in that order: 0%, 20%, 0% and 10%.
In the case of `O=C1CCC(CCCC(F)(F)F)c2c(Oc3ncc(Cl)cn3)cccc21` (stereo not drawn) [Compound 30, 5-[(5-Chloro-2-pyrimidinyl)oxy]-3,4-dihydro-4-(4,4,4-trifluorobutyl)-1(2H)-naphthalenone], the pest or weed control at 31 g/ha in assay [2] was 10%; in assay [3], 0%. In addition, the results for the pest or weed control at 125 g/ha in assay [2] and in assay [3] were 80% and 40%, respectively.
In the same order, the values of `FC(F)(F)CCC1OCCc2cccc(Oc3ncc(Cl)cn3)c21` (stereo not drawn) [Compound 32, 5-Chloro-2-[[3,4-dihydro-1-(3,3,3-trifluoropropyl)-1H-2-benzopyran-8-yl]oxy]pyrimidine] are 0%, 0%, 50% and 20%.
`FC(F)(F)CCCC1COc2cccc(Oc3ncc(Cl)cn3)c21` (stereo not drawn) [Compound 33, 5-Chloro-2-[[2,3-dihydro-3-(4,4,4-trifluorobutyl)-4-benzofuranyl]oxy]pyrimidine]: in assay [2], the pest or weed control at 31 g/ha came out at 10% and the pest or weed control at 125 g/ha turned out to be 100%. In addition, in assay [3], the pest or weed control at 31 g/ha was found to be 20% and the pest or weed control at 125 g/ha was found to be 20%.
As for `O=C1OCc2cccc(Oc3ncc(Cl)cn3)c2C1CCCCC(F)(F)F` (stereo not drawn) [Compound 34, 5-[(5-Chloro-2-pyrimidinyl)oxy]-1,4-dihydro-4-(5,5,5-trifluoropentyl)-3H-2-benzopyran-3-one], in assay [2], the pest or weed control at 31 g/ha came to 0% and the pest or weed control at 125 g/ha was determined as 10%. In assay [3], the pest or weed control at 31 g/ha stood at 0% and the pest or weed control at 125 g/ha was found to be 20%.
Regarding `FC(F)(F)CCC1COc2cccc(Oc3ncc(Cl)cn3)c21` (stereo not drawn) [Compound 36, 5-Chloro-2-[[2,3-dihydro-3-(3,3,3-trifluoropropyl)-4-benzofuranyl]oxy]pyrimidine], the pest or weed control at 31 g/ha in assay [2] and in assay [3] was 0% throughout. In addition, the results for the pest or weed control at 125 g/ha in assay [2] and in assay [3] were 60% and 20%, respectively.
